In this assay the test system is Pseudomonas aeruginosa ("Ps. aeruginosa") ATCC 15442. Description: Antibacterial test, growth/no-growth (MIC) in liquid medium. The note with it: within the concentration range tested, i.e., up to 2000 ppm. It counts as cell-based. The method, then:
The following materials and procedure were used to determine the potentiating effect of a diethanolamide with various biocides.
(1) Pseudomonas aeruginosa (“Ps. aeruginosa”) ATCC 15442 (a bacterium)
NaCl, 8.0 g; glucose, 1.0 g; tryptone, 1.0 g; DI water, 1.0 L.
5 ml of growth medium were suspended in test tubes, and the culture medium was autoclaved at 121° C. for 20 min. Biocide stock aqueous solutions were added in each tube to give the desired biocide-diethanolamide concentrations in parts per million. No biocide was added to the control tubes. All tubes were inoculated by adding 0.1 ml of inoculum to give a bacterial concentration of about 10^6 cells/ml (10^6 spores/ml for fungal test). After each addition, the tubes were shaken vigorously to mix the contents thoroughly. All inoculated tubes were placed at 37° C. for antibacterial test and at 28° C. for antifungal test. Bacterial growth was checked after 5-7 days and fungal growth was checked after 10-14 days.
The MIC of each biocide and diethanolamide acting alone and in combination was determined on a growth-no-growth basis. Tables 1-16 present both the lowest concentrations of each biocide and diethanolamide separately for which there was no growth, and the lowest concentration of biocide in combination with diethanolamide for which there was no growth. […]

Here are results for 1 substance from patent US6413531B1, “Potentiation of biocide activity using a diethanolamide” (Buckman Laboratories International, Inc., priority 1998, dated 2002).

As to “(RS)-1- 2-[(2,4-dichlorophenyl)-2-propyl-1,3-dioxalan-2ylmethyl]-1H-1,2,4-triazole [propiconazole]”, the antibacterial activity entry is on record as “does not have any antibacterial activity”.
